# Measured values as given in patent publication US10517889B2, “Modulators of SMAD7 expression” (Ionis Pharmaceuticals, Inc., priority 2017, dated 2019).
# Strand notation (5' to 3'): a small letter for the sugar, then the base; units joined by * are phosphorothioate-linked, units joined directly phosphodiester-linked; [ ] holds rarer units or linkages, { } end groups; capitals alone tell only the bases. e = 2'-O-(2-methoxyethyl) (MOE); [5mC] = 5-methylcytosine; d = 2'-deoxy (DNA)
# Key:
# [1] = tested on: human SMAD7 mRNA; assay: Antisense inhibition of human SMAD7 mRNA expression in Hep3B cells by 5-10-5 MOE gapmers, single concentration, electroporation, RT-PCR (Example 1, Study 1 and 2); format: cell-based; details: for % Inhibition: Study 2, electroporation with 15,000 nM antisense oligonucleotide
# Procedure, shortened: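 Readout is percent SMAD7 mRNA inhibition versus untreated cells, measured by qRT-PCR (RTS5062) and corrected for total RNA by RIBOGREEN. Oligonucleotide, 5,000 nM or 15,000 nM, was delivered by electroporation into Hep3B cells at 20,000 per well. RNA was collected about 24 h later.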
# [2] = tested on: human SMAD7 mRNA; assay: Dose-dependent inhibition of human SMAD7 mRNA expression in Hep3B cells (Example 3, Study 1 and 2); format: cell-based; details: electroporation; for % inhibition of SMAD7 mRNA expression: approximately 16 hours; for IC50: Study 1 (312.5-20000 nM)
# Procedure, shortened: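 Hep3B cells, 20,000 per well, electroporated with antisense oligonucleotide at 0.31, 1.25, 5.00 or 20.00 μM (first series) or 0.74, 2.22, 6.67 or 20.00 μM (second series). After ~16 h, SMAD7 mRNA measured by RT-qPCR (RTS5062), normalised to RIBOGREEN total RNA. Percent inhibition vs untreated cells; IC50 derived.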
# [3] = 5-10-5 MOE gapmers targeting SEQ ID NO: 1 and 2
# [4] = 312.5 nM, Study 1, relative to untreated control cells
# [5] = electroporation, 15,000 nM antisense oligonucleotide (Study 2), 5-10-5 MOE gapmers targeting SEQ ID NO: 1 and 2
Substance,"% Inhibition [1, 3]","% inhibition of SMAD7 mRNA expression [2, 4]","% inhibition of SMAD7 mRNA expression ([2]; 1250.0 nM, Study 1)","% inhibition of SMAD7 mRNA expression ([2]; 5000.0 nM, Study 1)","% inhibition of SMAD7 mRNA expression ([2]; 20000.0 nM, Study 1)",IC50 [2],"% inhibition of SMAD7 mRNA expression ([1]; electroporation, 15,000 nM, approximately 24 hours, relative to untreated control cells, gapmers targeting SEQ ID NO: 1 and 2)","% inhibition of SMAD7 mRNA expression [1, 5]"
771820 (antisense eG*eG*eT*e[5mC]*eA*dA*dA*d[5mC]*dT*dT*dG*dT*dG*dG*dT*eA*eA*eA*eA*eT) [compound 771820],29%,3%,3%,7%,7%,> 20 µM,–,–
771821 (antisense eG*eT*eT*e[5mC]*e[5mC]*dT*dT*dA*dT*dA*dG*dA*dT*dT*dA*eT*e[5mC]*e[5mC]*eA*eA) [compound 771821],–,0%,9%,27%,46%,> 20 µM,60%,–
771822 (antisense e[5mC]*eA*e[5mC]*e[5mC]*eA*dA*dA*dA*d[5mC]*dA*dA*dG*dT*dG*dT*e[5mC]*eT*eA*e[5mC]*e[5mC]) [compound 771822],44%,0%,0%,30%,45%,> 20 µM,–,–
771825 (antisense e[5mC]*eT*e[5mC]*eT*e[5mC]*dA*dT*dT*dT*d[5mC]*dT*dG*dG*dA*dA*e[5mC]*e[5mC]*e[5mC]*eA*e[5mC]) [compound 771825],–,15%,29%,17%,66%,15 µM,–,76%
771831 (antisense e[5mC]*eG*eA*eT*e[5mC]*dA*dT*dT*dT*dT*d[5mC]*dT*dA*d[5mC]*dA*e[5mC]*e[5mC]*eT*eT*eT) [compound 771831],66%,0%,13%,32%,51%,16 µM,–,–
771836 (antisense eT*eG*eT*eT*eG*dA*dG*dG*dA*d[5mC]*dT*d[5mC]*d[5mC]*d[5mC]*d[5mC]*eA*eG*e[5mC]*e[5mC]*eA) [compound 771836],28%,6%,25%,22%,41%,> 20 µM,–,–
771838 (antisense eG*eA*eA*e[5mC]*eT*d[5mC]*d[5mC]*dT*dG*d[5mC]*dA*dG*dG*dA*dT*eG*eA*eG*eG*eG) [compound 771838],53%,0%,24%,26%,43%,> 20 µM,–,–
771849 (antisense e[5mC]*eT*eA*eG*eG*d[5mC]*dT*dG*dG*dT*d[5mC]*dA*d[5mC]*dT*dT*e[5mC]*e[5mC]*eA*e[5mC]*eT) [compound 771849],–,25%,0%,10%,35%,> 20 µM,–,66%
